The source of these data is ChEMBL document CHEMBL4732175, “Design and Characterization of a Pyridone-Containing EZH2 Inhibitor Phosphate Prodrug” (J Med Chem, 2021).

Data set [1] can be described thus: Drug metabolism in rat plasma assessed as 5,8-dichloro-2-((4,6-dimethyl-2-oxo-1,2-dihydropyridin-3-yl)methyl)-7-(3,5-dimethylisoxazol-4-yl)-3,4-dihydroisoquinolin-1(2H)-one formation at 2000 mg/kg/day, po. The data set is classed as ADME, organism-based. To be noted: in vivo.
Data set [2] can be described thus: Drug metabolism in mouse plasma assessed as 5,8-dichloro-2-((4,6-dimethyl-2-oxo-1,2-dihydropyridin-3-yl)methyl)-7-(3,5-dimethylisoxazol-4-yl)-3,4-dihydroisoquinolin-1(2H)-one formation at 30 to 120 mg/kg, po BID. It is filed as ADME, organism-based. The settings on record: in vivo, dose 30-120 mg/kg.
Data set [3] deals with KARPAS-422. Put plainly: Antitumor activity against human KARPAS-422 cells xenografted in mouse assessed as inhibition of tumor growth inhibition at 60 mg/kg/day dosed via MC formulation for 30 days. It is filed as functional. To be noted: KARPAS-422, 720 h, time 30 day, read-out: TGI.
Data set [4] is described as follows: Drug level in mouse plasma at 30 to 120 mg/kg, po BID. It is filed as ADME, organism-based. To be noted: in vivo, dose 30-120 mg/kg.
A short description of data set [5]: Solubility in 0.5% MC formulation contained 1 equivalent of NaOH. The data set is classed as physicochemical. To be noted: 0.5% MC formulation containing 1 equivalent of NaOH.
Data set [6] relates to KARPAS-422. Put plainly: Antitumor activity against human KARPAS-422 cells xenografted in mouse assessed as inhibition of tumor growth inhibition at 240 mg/kg/day dosed via MC formulation for 30 days. It is filed as functional. The settings on record: KARPAS-422, 720 h, time 30 day, read-out: TGI.
Data set [7] deals with KARPAS-422. Put plainly: Antitumor activity against human KARPAS-422 cells xenografted in mouse assessed as inhibition of tumor growth inhibition at 60 to 240 mg/kg/day dosed via MC formulation for 30 days. It is filed as functional, organism-based. The settings on record: dose 60-240 mg/kg/day, time 30.0 day.
Data set [8] can be described thus: Chemical stability in simulated gastric fluid at pH 1.2. It is filed as physicochemical.
Data set [9] relates to KARPAS-422. Put plainly: Antitumor activity against human KARPAS-422 cells xenografted in mouse assessed as inhibition of tumor growth inhibition at 147 mg/kg/day dosed via MC formulation for 30 days and measured up to 40 days after dosing cessation. The data set is classed as functional, organism-based. The settings on record: time 30.0 day.
In data set [10] the test system is KARPAS-422. Put plainly: Antitumor activity against human KARPAS-422 cells xenografted in mouse assessed as inhibition of tumor growth inhibition at 240 mg/kg/day dosed via SEDDS formulation for 30 days. It is filed as functional, organism-based. To be noted: time 30.0 day.
The nature of data set [11]: Drug level in rat plasma at 2000 mg/kg/day, po. It is filed as ADME, organism-based. The settings on record: in vivo.
The subject of data set [12] is KARPAS-422. Put plainly: Antitumor activity against human KARPAS-422 cells xenografted in mouse assessed as inhibition of tumor growth inhibition at 120 mg/kg/day dosed via MC formulation for 30 days. It is filed as functional. The settings on record: KARPAS-422, 720 h, time 30 day, read-out: TGI.
Data set [13] can be described thus: Chemical stability in simulated intestinal fluid at pH 6.8. It is filed as physicochemical.
In data set [14] the target is T1, Histone-lysine N-methyltransferase EZH2 (Homo sapiens, UniProt Q15910). Put plainly: Inhibition of wild type EZH2 in human KARPAS-422 cells assessed as effect on H3K27Me3 levels. The data set is classed as cell-based.
Data set [15] is described as follows: Thermodynamic solubility in 0.5% MC/0.1% polysorbate 80 aqueous vehicle. It is filed as physicochemical. The settings on record: read-out: Therm_solubility.
The nature of data set [16]: Drug level in mouse plasma at 120 mg/kg, po BID dosed using SEDDS formulation. It is filed as ADME, organism-based. The settings on record: in vivo.
Data set [17] addresses T1, Histone-lysine N-methyltransferase EZH2. Put plainly: Inhibition of wild type EZH2 (unknown origin).
Data set [18] is described as follows: Apparent solubility of the compound. The data set is classed as physicochemical.
Data set [19] can be described thus: Distribution coefficient, log D of compound. It is filed as physicochemical. The settings on record: octanol/water.
In data set [20] the target is Histone-lysine N-methyltransferase EZH2 (Homo sapiens, UniProt Q15910, Y641N). Put plainly: Inhibition of wild type EZH2 Y641N mutant (unknown origin).
The nature of data set [21]: Permeability in MDCK cells. It is filed as ADME, cell-based, Canis lupus familiaris. To be noted: dog, read-out: permeability.
The test system of data set [22] is KARPAS-422. Put plainly: Antitumor activity against human KARPAS-422 cells xenografted in mouse assessed as inhibition of tumor growth inhibition at 240 mg/kg/day dosed via SEDDS formulation for 30 days. The settings on record: KARPAS-422, 720 h, read-out: TGI.
Data set [23] concerns KARPAS-422. Put plainly: Inhibition of cell proliferation in human KARPAS-422 cells. It is filed as functional, cell-based.
Data set [24] in a line: Intrinsic clearance in human liver microsomes. To be noted: read-out: CLH. The data set is classed as ADME, Microsome.

Converted amounts (≈) assume the structure as drawn. The source made the active and inactive calls. The rule behind the calls is not given here. Some results are limits rather than exact numbers.

T1 sequence (Q15910 whole entry): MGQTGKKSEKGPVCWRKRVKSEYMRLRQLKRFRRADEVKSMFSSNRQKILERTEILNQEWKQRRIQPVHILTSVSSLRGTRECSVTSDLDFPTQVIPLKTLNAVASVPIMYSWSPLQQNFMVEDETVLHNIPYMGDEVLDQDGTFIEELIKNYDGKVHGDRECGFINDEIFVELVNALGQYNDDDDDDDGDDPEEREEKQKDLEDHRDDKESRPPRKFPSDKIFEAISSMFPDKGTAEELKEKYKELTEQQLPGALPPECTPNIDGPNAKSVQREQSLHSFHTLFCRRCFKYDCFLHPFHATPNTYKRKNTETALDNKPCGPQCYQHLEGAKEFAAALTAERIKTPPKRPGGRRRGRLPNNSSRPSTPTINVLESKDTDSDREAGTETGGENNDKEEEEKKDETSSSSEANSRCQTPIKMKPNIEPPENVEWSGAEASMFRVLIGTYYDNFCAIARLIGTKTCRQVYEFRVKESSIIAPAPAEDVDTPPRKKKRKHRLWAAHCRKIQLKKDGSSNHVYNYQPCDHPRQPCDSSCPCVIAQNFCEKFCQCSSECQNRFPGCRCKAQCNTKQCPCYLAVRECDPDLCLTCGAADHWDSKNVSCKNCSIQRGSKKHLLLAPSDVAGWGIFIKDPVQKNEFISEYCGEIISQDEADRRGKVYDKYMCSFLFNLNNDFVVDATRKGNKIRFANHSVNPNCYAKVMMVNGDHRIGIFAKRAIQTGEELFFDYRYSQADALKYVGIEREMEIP
Histone-lysine N-methyltransferase EZH2 (Homo sapiens, UniProt Q15910, Y641N), sequence (Q15910 whole entry Y641N): as the sequence (Q15910 whole entry) above, with Y641N counted along it

In the case of `Cc1cc(C)n(COP(=O)(O)O)c(=O)c1CN1CCc2c(Br)cc(-c3c(C)nnn3C)c(Cl)c2C1=O`, the Drug metabolism entry in data set [1] is listed as “Metabolite_Detected”; in [2], “Dose-dependent effect”. Also, the inhibition in vivo at 60 mg/kg/day in [3] worked out at 37%. Also, the Cp in data set [4] was below 1 ng/mL. Besides, in data set [5], the solubility was 21600 µM. For the same compound, the inhibition in vivo at 240 mg/kg/day in data set [6] was 121%. Also, the TGI entry in data set [7] is “Dose-dependent effect”. In addition, the Stabilty in data set [8] and in [13] was 8 h throughout. The TGI entry in [9] and in data set [10] was “Active” throughout. In addition, the Drug uptake result in data set [11] is “Not Active”. Further, the inhibition in vivo at 120 mg/kg/day in data set [12] was 59%.

On to `Cc1cc(C)c(CN2CCc3c(Br)cc(-c4c(C)nnn4C)c(Cl)c3C2=O)c(=O)[nH]1`, for which the IC50 was determined as 30 nM in data set [14] and 36 nM in data set [23]. For the same compound, in [15], the solubility thermodynamic stood at 41 µM (≈ 20.1 µg/mL). The Drug uptake entry in [16] is listed as “Active”. The Ki in data set [17] turned out to be 2 nM; in [20], 7 nM. In addition, in data set [18], the solubility was 338 µM (≈ 166 µg/mL). In data set [19], this compound displayed a logD of 2.4. In [21], the Papp was found to be 9 ×10⁻⁶ cm/s. For the same compound, the inhibition in vivo at 240 mg/kg/day in [22] came out at 98%. Further, in data set [24], the microsomal CLint amounted to 27.8 µL/min/mg.

The compound `Cc1cc(C)c(CN2CCc3c(Cl)cc(-c4c(C)noc4C)c(Cl)c3C2=O)c(=O)[nH]1` registered an inhibition constant Ki in data set [17] of 1 nM. The solubility in [18] turned out to be 140 µM (≈ 62.5 µg/mL). For the same compound, the logD in data set [19] was determined as 3.1.
